Results taken from patent publication US4309559A, “Sulphonamides useful as pesticides” (FBC Limited, priority 1977, dated 1982).

Experiments:
Format in all cases: in vivo
Peas (Pisum sativum) [1] = assay: Post-emergence foliar spray, herbicidal/growth regulant response, peas; conditions: Lathyrus oleraceus, 168 h, foliar spray 11.2 kg/ha, 7 days, 0=no effect, 100=complete kill, read-out: herbicidal or growth regulant response index
Summary of the method: (§1)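 Score is a visual index from 0 (no effect) to 100 (complete kill) versus untreated control, assessed seven days after spraying. Plants were treated 14 days post-sowing at a rate equivalent to 11.2 kg/ha in 450 liters per hectare, compound dissolved in 1:1 aqueous acetone.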

Mustard (Sinapis alba) [2] = assay: Post-emergence foliar spray, herbicidal/growth regulant response, mustard; conditions: 168 h, foliar spray 11.2 kg/ha, 7 days, 0=no effect, 100=complete kill, read-out: herbicidal or growth regulant response index
Summary of the method: as §1

[3] = system: Linseed (Linum usitatissimum); assay: Post-emergence foliar spray, herbicidal/growth regulant response, linseed; conditions: 168 h, foliar spray 11.2 kg/ha, 7 days, 0=no effect, 100=complete kill, read-out: herbicidal or growth regulant response index
Summary of the method: as §1

[4] = system: Ryegrass (Lolium perenne); assay: Post-emergence foliar spray, herbicidal/growth regulant response, ryegrass; conditions: 168 h, foliar spray 11.2 kg/ha, 7 days, 0=no effect, 100=complete kill, read-out: herbicidal or growth regulant response index
Summary of the method: as §1

[5] = system: Sugarbeet (Beta vulgaris); assay: Post-emergence foliar spray, herbicidal/growth regulant response, sugarbeet; conditions: 168 h, foliar spray 11.2 kg/ha, 7 days, 0=no effect, 100=complete kill, read-out: herbicidal or growth regulant response index
Summary of the method: as §1

Oat (Avena sativa) = assay: Post-emergence foliar spray, herbicidal/growth regulant response, oat; conditions: 168 h, foliar spray 11.2 kg/ha, 7 days, 0=no effect, 100=complete kill, read-out: herbicidal or growth regulant response index
Summary of the method: as §1

[6] = system: French beans (Phaseolus vulgaris); assay: Post-emergence foliar spray, herbicidal/growth regulant response, French beans; conditions: foliar spray 11.2 kg/ha, 7 days, 0=no effect, 100=complete kill
Summary of the method: as §1

Peas (Pisum sativum) [7] = assay: Soil incorporation (attaclay/sand dust), growth regulatory or herbicidal effects, peas; conditions: Lathyrus oleraceus, 504 h, soil incorporation 26 ppm, 21 days, 0=no effect, 100=complete kill, read-out: growth regulatory or herbicidal effect score
Summary of the method: (§2)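 Active ingredient formulated as attaclay/sand dust and mixed into John Innes I potting compost at 26 or 130 ppm w/v (about 11.2 or 56 kg a.i./ha cultivated to 5 cm). Seeds sown in treated soil, grown 21 days at 22° C, 65-85% RH, 14 h light at 13,000 lux; visual score 0-100 versus untreated control.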

Mustard (Sinapis alba) [8] = assay: Soil incorporation (attaclay/sand dust), growth regulatory or herbicidal effects, mustard; conditions: 504 h, soil incorporation 26 ppm, 21 days, 0=no effect, 100=complete kill, read-out: growth regulatory or herbicidal effect score
Summary of the method: as §2

[9] = system: Linseed (Linum usitatissimum); assay: Soil incorporation (attaclay/sand dust), growth regulatory or herbicidal effects, linseed; conditions: 504 h, soil incorporation 26 ppm, 21 days, 0=no effect, 100=complete kill, read-out: growth regulatory or herbicidal effect score
Summary of the method: as §2

Maize (Zea mays) = assay: Soil incorporation (attaclay/sand dust), growth regulatory or herbicidal effects, maize; conditions: 504 h, soil incorporation 26 ppm, 21 days, 0=no effect, 100=complete kill, read-out: growth regulatory or herbicidal effect score
Summary of the method: as §2

[10] = system: Crabgrass (Digitaria sanguinalis); assay: Pre-emergence soil surface spray, crabgrass; conditions: soil surface spray 2.8 kg/ha, 21 days, 0=no effect, 100=complete kill
Summary of the method: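 Visual score 0-100 (0 = no effect, 100 = complete kill) relative to untreated control, taken 21 days after a pre-emergence soil-surface spray at 2.8 kg a.i./ha in 450 l/ha. Compound formulated in 1:1 aqueous acetone; growth at 22° C., RH 65-85%, 14 h/day light at 17,000 lux.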

## CCCS(=O)(=O)N(c1c(C)cccc1C)C(C)C(=O)OCC (stereo not drawn) [Example 24, N-(1-[ethoxycarbonyl]ethyl)-2',6'-dimethyl-1-propanesulphonanilide]
Peas (Pisum sativum) [1]
  pest or weed control at 11200 g/ha: 20%
Mustard (Sinapis alba) [2]
  pest or weed control at 11200 g/ha: 100%
[3]
  pest or weed control at 11200 g/ha: 90%
[4]
  pest or weed control at 11200 g/ha: 75%
[5]
  plant injury at 11200 g/ha: 90%
Oat (Avena sativa)
  plant injury at 11200 g/ha: 30%
[6]
  herbicidal or growth regulant response index: 100
Peas (Pisum sativum) [7]
  pest or weed control at 26 µg/mL: 0%
Mustard (Sinapis alba) [8]
  pest or weed control at 26 µg/mL: 100%
[9]
  pest or weed control at 26 µg/mL: 100%
Maize (Zea mays)
  plant injury at 26 µg/mL: 60%
[10]
  growth regulatory or herbicidal effect score: 100
